Test results published in article PMC5766581, “NF-κB inducing kinase is a therapeutic target for systemic lupus erythematosus” (Nature Communications, 2018).

Columns and labels:
Assay in all cases: SelectScreen kinase panel
Type in all cases: biochemical
CDK7/cyclinH = biological target: T1, CDK7/cyclinH (Homo sapiens, UniProt P50613)
T1 construct: purchased Invitrogen / ThermoFisher SelectScreen
Method: (§1) The ability of NIK to catalyze the hydrolysis of adenosine-5′-triphosphate (ATP) was monitored using the Transcreener ADP (adenosine-5′-diphosphate) assay (Bell Brook Labs, Fitchburg, WI). Purified human NIK kinase domain (a.a. 340–694) (0.5 nM) or mouse NIK kinase domain (a.a. 329–675) (1 nM) derived from a baculovirus-infected insect cell expression system was incubated with test compounds for 0.5–2 h in 50 mM HEPES buffer (pH 7.2) containing 10 mM MgCl2, 2 mM dithiothreitol, 10 μM ATP, 0.01% Triton X-100, 0.1% gamma-globulins from bovine blood, 1% dimethylsulfoxide (DMSO), 7 μg/mL ADP antibody and 5 nM ADP-MR121 633 tracer. Reactions were quenched by the addition of 20 mM EDTA and 0.01% Brij 35. The tracer bound to the antibody was displaced by the ADP generated during the NIK reaction, which caused a decrease in fluorescence polarization that was measured by laser excitation at 633 nm with a Fluorescence Correlation Spectroscopy Plus reader (Evotec AG). Equilibrium dissociation constant (Ki) values for NIK inhibitors are calculated from plots of activity vs. inhibitor concentration using Morrison’s quadratic equation that accounts for the potential of tight binding, and by also applying the conversion factor that accounted for competitive inhibition and the concentration of substrate used in the assay relative to its Michaelis constant (Km). The Ki values with hPKD1 (PKCμ) were determined using the same assay conditions as for NIK. Ki measurements for hKHS1 and hLRRK2, as well as broad kinase selectivity profiling for SMI1, were carried out by Invitrogen using their SelectScreen kinase assay panel (ThermoFisher Scientific, Madison, WI). The vendor offered two types of kinase activity assays, a peptide phosphorylation assay (Z′-LYTE) and an ADP quantitation assay (Adapta), as well as one type of kinase ATP site competitive binding assay (LanthaScreen). See vendor web site for technology and protocol details for each specific kinase assay.
(§2) The average % Inhibition of each kinase is reported (Supplementary Table 1).

CK1_gamma1 = biological target: T2, CK1_gamma1 (Homo sapiens, UniProt Q9HCP0)
T2 construct: purchased Invitrogen / ThermoFisher SelectScreen
Method: as §1, §2

CK2_alpha1 = biological target: T3, CK2_alpha1 (Homo sapiens, UniProt P68400)
T3 construct: purchased Invitrogen / ThermoFisher SelectScreen
Method: as §1, §2

DNA-PK = biological target: T4, DNA-PK (Homo sapiens, UniProt P78527)
T4 construct: purchased Invitrogen / ThermoFisher SelectScreen
Method: as §1, §2

DYRK4 = biological target: T5, DYRK4 (Homo sapiens, UniProt Q9NR20)
T5 construct: purchased Invitrogen / ThermoFisher SelectScreen
Method: as §1, §2

EGFR = biological target: T6, EGFR (Homo sapiens, UniProt P00533)
T6 construct: purchased Invitrogen / ThermoFisher SelectScreen
Method: as §1, §2

ERK2 = biological target: T7, ERK2 (Homo sapiens, UniProt P28482)
T7 construct: purchased Invitrogen / ThermoFisher SelectScreen
Method: as §1, §2

EphB3 = biological target: T8, EphB3 (Homo sapiens, UniProt P54753)
T8 construct: purchased Invitrogen / ThermoFisher SelectScreen
Method: as §1, §2

ErbB4 = biological target: T9, ErbB4 (Homo sapiens, UniProt Q15303)
T9 construct: purchased Invitrogen / ThermoFisher SelectScreen
Method: as §1, §2

Fes = biological target: T10, Fes (Homo sapiens, UniProt P07332)
T10 construct: purchased Invitrogen / ThermoFisher SelectScreen
Method: as §1, §2

GRK5 = biological target: T11, GRK5 (Homo sapiens, UniProt P34947)
T11 construct: purchased Invitrogen / ThermoFisher SelectScreen
Method: as §1, §2

HIPK1 = biological target: T12, HIPK1 (Homo sapiens, UniProt Q86Z02)
T12 construct: purchased Invitrogen / ThermoFisher SelectScreen
Method: as §1, §2

HIPK4 = biological target: T13, HIPK4 (Homo sapiens, UniProt Q8NE63)
T13 construct: purchased Invitrogen / ThermoFisher SelectScreen
Method: as §1, §2

IRAK4 = biological target: T14, IRAK4 (Homo sapiens, UniProt Q9NWZ3)
T14 construct: purchased Invitrogen / ThermoFisher SelectScreen
Method: as §1, §2

JAK1 = biological target: T15, JAK1 (Homo sapiens, UniProt P23458)
T15 construct: purchased Invitrogen / ThermoFisher SelectScreen
Method: as §1, §2

JNK1_alpha1 = biological target: T16, JNK1_alpha1 (Homo sapiens, UniProt P45983)
T16 construct: purchased Invitrogen / ThermoFisher SelectScreen
Method: as §1, §2

Lyn = biological target: T17, Lyn (Homo sapiens, UniProt P07948)
T17 construct: purchased Invitrogen / ThermoFisher SelectScreen
Method: as §1, §2

MAPKAPK2 = biological target: T18, MAPKAPK2 (Homo sapiens, UniProt P49137)
T18 construct: purchased Invitrogen / ThermoFisher SelectScreen
Method: as §1, §2

MAPKAPK3 = biological target: T19, MAPKAPK3 (Homo sapiens, UniProt Q16644)
T19 construct: purchased Invitrogen / ThermoFisher SelectScreen
Method: as §1, §2

Mer = biological target: T20, Mer (Homo sapiens, UniProt Q12866)
T20 construct: purchased Invitrogen / ThermoFisher SelectScreen
Method: as §1, §2

MuSK = biological target: T21, MuSK (Homo sapiens, UniProt O15146)
T21 construct: purchased Invitrogen / ThermoFisher SelectScreen
Method: as §1, §2

PAK1 = biological target: T22, PAK1 (Homo sapiens, UniProt Q13153)
T22 construct: purchased Invitrogen / ThermoFisher SelectScreen
Method: as §1, §2

PAK3 = biological target: T23, PAK3 (Homo sapiens, UniProt O75914)
T23 construct: purchased Invitrogen / ThermoFisher SelectScreen
Method: as §1, §2

PDGFR_alpha = biological target: T24, PDGFR_alpha (Homo sapiens, UniProt P16234)
T24 construct: purchased Invitrogen / ThermoFisher SelectScreen
Method: as §1, §2

PKC-epsilon = biological target: T25, PKC-epsilon (Homo sapiens, UniProt Q02156)
T25 construct: purchased Invitrogen / ThermoFisher SelectScreen
Method: as §1, §2

PKG1_alpha = biological target: T26, PKG1_alpha (Homo sapiens, UniProt Q13976)
T26 construct: purchased Invitrogen / ThermoFisher SelectScreen
Method: as §1, §2

RSK2 = biological target: T27, RSK2 (Homo sapiens, UniProt P51812)
T27 construct: purchased Invitrogen / ThermoFisher SelectScreen
Method: as §1, §2

Rse = biological target: T28, Rse (Homo sapiens, UniProt Q06418)
T28 construct: purchased Invitrogen / ThermoFisher SelectScreen
Method: as §1, §2

SIK2 = biological target: T29, SIK2 (Homo sapiens, UniProt Q9H0K1)
T29 construct: purchased Invitrogen / ThermoFisher SelectScreen
Method: as §1, §2

Syk = biological target: T30, Syk (Homo sapiens, UniProt P43405)
T30 construct: purchased Invitrogen / ThermoFisher SelectScreen
Method: as §1, §2

Yes = biological target: T31, Yes (Homo sapiens, UniProt P07947)
T31 construct: purchased Invitrogen / ThermoFisher SelectScreen
Method: as §1, §2

mTOR = biological target: T32, mTOR (Homo sapiens, UniProt P42345)
T32 construct: purchased Invitrogen / ThermoFisher SelectScreen
Method: as §1, §2

PhK_gamma2 = biological target: T33, PhK_gamma2 (Homo sapiens, UniProt P15735)
T33 construct: purchased Invitrogen / ThermoFisher SelectScreen

T28 sequence (Q06418 41-890): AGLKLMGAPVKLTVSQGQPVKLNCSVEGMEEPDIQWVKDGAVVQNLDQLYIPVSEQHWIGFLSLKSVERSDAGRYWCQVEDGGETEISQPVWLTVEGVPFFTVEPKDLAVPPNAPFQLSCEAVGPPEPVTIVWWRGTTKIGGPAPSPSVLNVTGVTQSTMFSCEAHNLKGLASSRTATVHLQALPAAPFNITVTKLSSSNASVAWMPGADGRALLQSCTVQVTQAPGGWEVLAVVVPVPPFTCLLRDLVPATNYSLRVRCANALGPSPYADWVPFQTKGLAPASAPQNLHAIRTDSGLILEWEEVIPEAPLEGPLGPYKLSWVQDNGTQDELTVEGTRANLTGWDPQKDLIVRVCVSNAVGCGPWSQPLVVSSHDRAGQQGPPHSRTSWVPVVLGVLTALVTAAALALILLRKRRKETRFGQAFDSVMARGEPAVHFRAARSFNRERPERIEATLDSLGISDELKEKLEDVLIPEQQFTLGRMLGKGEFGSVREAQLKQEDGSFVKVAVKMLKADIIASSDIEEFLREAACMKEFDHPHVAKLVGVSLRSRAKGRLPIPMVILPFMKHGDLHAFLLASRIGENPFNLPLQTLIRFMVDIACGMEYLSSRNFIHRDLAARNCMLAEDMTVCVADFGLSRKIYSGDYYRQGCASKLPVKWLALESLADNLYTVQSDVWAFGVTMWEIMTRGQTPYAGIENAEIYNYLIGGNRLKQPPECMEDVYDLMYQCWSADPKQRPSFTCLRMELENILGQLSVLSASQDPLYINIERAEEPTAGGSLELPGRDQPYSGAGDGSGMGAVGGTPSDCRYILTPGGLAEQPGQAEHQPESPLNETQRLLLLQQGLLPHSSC
T19 sequence (Q16644 whole entry): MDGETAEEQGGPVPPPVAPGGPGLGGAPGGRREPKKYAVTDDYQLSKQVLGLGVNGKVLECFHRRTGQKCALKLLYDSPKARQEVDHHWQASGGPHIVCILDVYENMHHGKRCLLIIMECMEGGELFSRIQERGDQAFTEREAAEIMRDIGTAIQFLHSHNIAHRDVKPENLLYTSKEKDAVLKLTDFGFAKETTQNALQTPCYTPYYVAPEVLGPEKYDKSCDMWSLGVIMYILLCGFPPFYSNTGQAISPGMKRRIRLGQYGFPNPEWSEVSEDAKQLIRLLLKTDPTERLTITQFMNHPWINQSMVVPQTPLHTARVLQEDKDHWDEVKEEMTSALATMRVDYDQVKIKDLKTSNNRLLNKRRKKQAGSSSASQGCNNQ
T24 sequence (P16234 24-1089): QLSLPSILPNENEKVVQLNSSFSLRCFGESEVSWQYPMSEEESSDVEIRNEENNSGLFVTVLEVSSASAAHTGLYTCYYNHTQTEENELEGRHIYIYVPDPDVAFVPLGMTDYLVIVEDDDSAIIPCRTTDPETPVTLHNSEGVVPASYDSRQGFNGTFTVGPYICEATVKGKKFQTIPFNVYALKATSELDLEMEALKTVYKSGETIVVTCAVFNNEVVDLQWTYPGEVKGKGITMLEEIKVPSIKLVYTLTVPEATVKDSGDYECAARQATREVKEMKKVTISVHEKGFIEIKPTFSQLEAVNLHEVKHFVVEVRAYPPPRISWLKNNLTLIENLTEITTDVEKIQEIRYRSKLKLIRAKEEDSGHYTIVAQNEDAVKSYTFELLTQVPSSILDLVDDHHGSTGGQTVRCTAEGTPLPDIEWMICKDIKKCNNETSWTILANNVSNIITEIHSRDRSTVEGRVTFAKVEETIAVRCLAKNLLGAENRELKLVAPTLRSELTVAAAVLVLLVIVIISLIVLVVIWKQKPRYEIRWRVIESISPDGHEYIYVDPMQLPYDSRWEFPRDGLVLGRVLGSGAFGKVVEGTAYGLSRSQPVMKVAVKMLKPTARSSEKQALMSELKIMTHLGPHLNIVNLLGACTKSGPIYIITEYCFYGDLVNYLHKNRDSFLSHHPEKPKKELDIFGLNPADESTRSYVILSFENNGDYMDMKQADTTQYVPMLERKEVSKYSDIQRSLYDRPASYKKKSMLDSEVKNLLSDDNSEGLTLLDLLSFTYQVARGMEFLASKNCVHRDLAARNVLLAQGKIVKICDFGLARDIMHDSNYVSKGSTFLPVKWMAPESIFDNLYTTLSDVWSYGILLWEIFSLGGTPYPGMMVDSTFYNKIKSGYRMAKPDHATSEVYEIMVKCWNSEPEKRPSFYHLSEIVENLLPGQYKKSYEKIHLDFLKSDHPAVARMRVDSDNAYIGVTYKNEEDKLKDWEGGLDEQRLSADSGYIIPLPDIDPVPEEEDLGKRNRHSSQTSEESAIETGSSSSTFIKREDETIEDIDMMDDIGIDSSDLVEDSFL
T6 sequence (P00533 25-1210): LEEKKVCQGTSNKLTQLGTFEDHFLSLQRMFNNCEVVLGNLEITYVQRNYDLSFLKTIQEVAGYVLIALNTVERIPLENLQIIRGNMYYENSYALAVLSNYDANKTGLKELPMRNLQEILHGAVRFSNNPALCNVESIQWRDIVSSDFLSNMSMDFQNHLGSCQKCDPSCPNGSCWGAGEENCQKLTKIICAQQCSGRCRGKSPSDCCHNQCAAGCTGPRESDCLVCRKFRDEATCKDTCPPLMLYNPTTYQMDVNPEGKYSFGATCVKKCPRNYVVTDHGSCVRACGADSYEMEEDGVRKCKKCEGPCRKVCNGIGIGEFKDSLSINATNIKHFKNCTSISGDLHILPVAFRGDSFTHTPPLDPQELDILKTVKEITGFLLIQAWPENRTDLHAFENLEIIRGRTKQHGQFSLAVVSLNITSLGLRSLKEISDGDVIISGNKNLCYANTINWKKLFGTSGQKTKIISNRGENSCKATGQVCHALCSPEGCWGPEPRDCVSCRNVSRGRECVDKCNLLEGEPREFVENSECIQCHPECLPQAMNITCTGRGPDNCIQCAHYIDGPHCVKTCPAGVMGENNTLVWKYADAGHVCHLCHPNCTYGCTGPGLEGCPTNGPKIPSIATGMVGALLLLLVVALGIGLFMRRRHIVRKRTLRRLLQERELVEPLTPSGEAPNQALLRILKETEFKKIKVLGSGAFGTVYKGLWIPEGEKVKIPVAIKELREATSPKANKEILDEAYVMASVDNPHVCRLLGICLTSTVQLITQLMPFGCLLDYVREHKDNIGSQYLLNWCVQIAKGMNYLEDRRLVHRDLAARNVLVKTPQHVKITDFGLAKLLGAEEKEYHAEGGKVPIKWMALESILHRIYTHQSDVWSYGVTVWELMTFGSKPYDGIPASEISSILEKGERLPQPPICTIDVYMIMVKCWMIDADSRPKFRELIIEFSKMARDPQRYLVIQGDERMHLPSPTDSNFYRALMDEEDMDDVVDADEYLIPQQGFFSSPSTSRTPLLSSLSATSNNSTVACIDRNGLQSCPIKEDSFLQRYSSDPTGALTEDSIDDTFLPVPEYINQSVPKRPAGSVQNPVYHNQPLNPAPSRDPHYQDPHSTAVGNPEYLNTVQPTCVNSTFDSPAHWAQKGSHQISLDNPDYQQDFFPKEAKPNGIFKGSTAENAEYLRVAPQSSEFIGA
T18 sequence (P49137 whole entry): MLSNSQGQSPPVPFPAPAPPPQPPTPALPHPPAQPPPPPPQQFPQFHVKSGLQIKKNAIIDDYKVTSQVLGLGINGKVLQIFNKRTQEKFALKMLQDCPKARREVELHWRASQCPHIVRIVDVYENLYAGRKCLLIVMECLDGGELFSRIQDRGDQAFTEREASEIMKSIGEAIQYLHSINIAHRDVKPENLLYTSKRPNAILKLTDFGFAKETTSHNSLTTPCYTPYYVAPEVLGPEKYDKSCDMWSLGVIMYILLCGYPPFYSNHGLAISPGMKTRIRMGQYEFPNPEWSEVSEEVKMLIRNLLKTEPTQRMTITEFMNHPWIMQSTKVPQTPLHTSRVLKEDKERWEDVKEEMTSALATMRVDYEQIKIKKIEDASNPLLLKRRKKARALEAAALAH
T15 sequence (P23458 whole entry): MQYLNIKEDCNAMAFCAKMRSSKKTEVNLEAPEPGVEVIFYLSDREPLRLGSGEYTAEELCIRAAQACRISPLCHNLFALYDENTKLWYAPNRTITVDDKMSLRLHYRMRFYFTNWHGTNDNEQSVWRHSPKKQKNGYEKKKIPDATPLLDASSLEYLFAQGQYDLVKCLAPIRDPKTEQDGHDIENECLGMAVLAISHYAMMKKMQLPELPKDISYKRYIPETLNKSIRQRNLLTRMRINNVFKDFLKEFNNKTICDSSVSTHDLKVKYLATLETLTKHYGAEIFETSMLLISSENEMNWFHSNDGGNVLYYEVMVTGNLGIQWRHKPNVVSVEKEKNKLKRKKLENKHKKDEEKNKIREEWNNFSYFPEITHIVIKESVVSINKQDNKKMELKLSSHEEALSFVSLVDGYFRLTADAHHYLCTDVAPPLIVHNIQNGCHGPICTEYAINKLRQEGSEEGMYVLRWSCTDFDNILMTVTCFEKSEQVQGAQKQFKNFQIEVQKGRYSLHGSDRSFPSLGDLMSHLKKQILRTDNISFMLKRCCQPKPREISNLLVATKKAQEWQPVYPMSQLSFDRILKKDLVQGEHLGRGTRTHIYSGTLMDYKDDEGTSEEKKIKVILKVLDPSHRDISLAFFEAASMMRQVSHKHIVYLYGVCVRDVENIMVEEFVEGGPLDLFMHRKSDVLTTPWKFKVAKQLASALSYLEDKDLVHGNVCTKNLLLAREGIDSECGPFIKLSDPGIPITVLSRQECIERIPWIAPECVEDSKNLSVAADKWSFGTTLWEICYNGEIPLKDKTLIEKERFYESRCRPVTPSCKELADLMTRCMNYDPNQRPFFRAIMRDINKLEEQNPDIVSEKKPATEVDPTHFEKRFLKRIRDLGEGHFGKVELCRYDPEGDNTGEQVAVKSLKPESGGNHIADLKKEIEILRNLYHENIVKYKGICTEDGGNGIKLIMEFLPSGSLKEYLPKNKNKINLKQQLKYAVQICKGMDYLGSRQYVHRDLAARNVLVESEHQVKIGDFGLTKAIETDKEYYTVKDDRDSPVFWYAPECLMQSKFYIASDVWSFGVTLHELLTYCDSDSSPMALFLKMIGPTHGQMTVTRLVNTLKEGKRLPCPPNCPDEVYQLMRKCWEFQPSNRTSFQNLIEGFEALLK

COc1cc(C(N)=O)nc(-c2cccc(C#C[C@]3(O)CCN(C)C3=O)c2)c1 [NIK SMI1]
inhibition at 1 µM (CDK7/cyclinH): -5.5%
inhibition at 1 µM (CK1_gamma1): 2.5%
inhibition at 1 µM (CK2_alpha1): 4.5%
inhibition at 1 µM (DNA-PK): -4%
inhibition at 1 µM (DYRK4): 5.5%
inhibition at 1 µM (EGFR): -11.5%
inhibition at 1 µM (ERK2): 5.5%
inhibition at 1 µM (EphB3): 5.5%
inhibition at 1 µM (ErbB4): 7%
inhibition at 1 µM (Fes): 20.5%
inhibition at 1 µM (GRK5): 0.5%
inhibition at 1 µM (HIPK1): 4.5%
inhibition at 1 µM (HIPK4): 3%
inhibition at 1 µM (IRAK4): -1.5%
inhibition at 1 µM (JAK1): -7%
inhibition at 1 µM (JNK1_alpha1): 5.6%
inhibition at 1 µM (Lyn): 2.5%
inhibition at 1 µM (MAPKAPK2): -5%
inhibition at 1 µM (MAPKAPK3): 1%
inhibition at 1 µM (Mer): 3.5%
inhibition at 1 µM (MuSK): 6%
inhibition at 1 µM (PAK1): 9%
inhibition at 1 µM (PAK3): -3.5%
inhibition at 1 µM (PDGFR_alpha): -4.5%
inhibition at 1 µM (PKC-epsilon): 2%
inhibition at 1 µM (PKG1_alpha): 14.5%
inhibition at 1 µM (RSK2): 7%
inhibition at 1 µM (Rse): 12%
inhibition at 1 µM (SIK2): 5.5%
inhibition at 1 µM (Syk): -0.5%
inhibition at 1 µM (Yes): 0.5%
inhibition at 1 µM (mTOR): -1%
inhibition at 1 µM (PhK_gamma2): -3%
